# Source: the NIST ThermoML archive (doi:10.1021/je5010643)
# ± gives the expanded uncertainty stated by the source.
# Test: xn = mol fraction of the nth substance listed
# Conditions: 101.32 kPa, Liquid; for speed of sound: Frequency=3 MHz, Linear variable-path acoustic interferometer
smiles,measurement,setting,value
CC(C)C(=O)O [2-methylpropanoic acid] + C1COCCO1,speed of sound,"295.15 K, x2 = 0",1100.2 ± 1.6 m/s
same,speed of sound,"295.15 K, x2 = 0.1",1119.6 ± 1.6 m/s
same,speed of sound,"295.15 K, x2 = 0.2",1140 ± 1.6 m/s
same,speed of sound,"295.15 K, x2 = 0.3",1161.7 ± 1.6 m/s
same,speed of sound,"295.15 K, x2 = 0.4",1184.5 ± 1.7 m/s
same,speed of sound,"295.15 K, x2 = 0.5",1208.8 ± 1.7 m/s
same,speed of sound,"295.15 K, x2 = 0.6",1234.7 ± 1.7 m/s
same,speed of sound,"295.15 K, x2 = 0.7",1262.3 ± 1.7 m/s
same,speed of sound,"295.15 K, x2 = 0.8",1291.8 ± 1.7 m/s
same,speed of sound,"295.15 K, x2 = 0.9",1323.6 ± 1.8 m/s
same,mass density,"295.15 K, x2 = 0",945.28 ± 1 kg/m3
same,mass density,"295.15 K, x2 = 0.1",955.63 ± 0.96 kg/m3
same,mass density,"295.15 K, x2 = 0.2",965.46 ± 0.9 kg/m3
same,mass density,"295.15 K, x2 = 0.3",975.08 ± 0.85 kg/m3
same,mass density,"295.15 K, x2 = 0.4",984.2 ± 0.79 kg/m3
same,mass density,"295.15 K, x2 = 0.5",993.05 ± 0.74 kg/m3
same,mass density,"295.15 K, x2 = 0.6",1001.52 ± 0.71 kg/m3
same,mass density,"295.15 K, x2 = 0.7",1009.56 ± 0.76 kg/m3
same,mass density,"295.15 K, x2 = 0.8",1017.23 ± 0.81 kg/m3
same,mass density,"295.15 K, x2 = 0.9",1024.38 ± 0.86 kg/m3
same,speed of sound,"298.15 K, x2 = 0",1086 ± 1.6 m/s
same,speed of sound,"298.15 K, x2 = 0.1",1105.4 ± 1.6 m/s
same,speed of sound,"298.15 K, x2 = 0.2",1125.9 ± 1.6 m/s
same,speed of sound,"298.15 K, x2 = 0.3",1147.5 ± 1.6 m/s
same,speed of sound,"298.15 K, x2 = 0.4",1170.5 ± 1.7 m/s
same,speed of sound,"298.15 K, x2 = 0.5",1194.9 ± 1.7 m/s
same,speed of sound,"298.15 K, x2 = 0.6",1220.8 ± 1.7 m/s
same,speed of sound,"298.15 K, x2 = 0.7",1248.6 ± 1.7 m/s
same,speed of sound,"298.15 K, x2 = 0.8",1278.3 ± 1.7 m/s
same,speed of sound,"298.15 K, x2 = 0.9",1310.3 ± 1.8 m/s
same,mass density,"298.15 K, x2 = 0",942.22 ± 1 kg/m3
same,mass density,"298.15 K, x2 = 0.1",952.65 ± 0.98 kg/m3
same,mass density,"298.15 K, x2 = 0.2",962.63 ± 0.92 kg/m3
same,mass density,"298.15 K, x2 = 0.3",972.12 ± 0.86 kg/m3
same,mass density,"298.15 K, x2 = 0.4",981.18 ± 0.81 kg/m3
same,mass density,"298.15 K, x2 = 0.5",989.97 ± 0.76 kg/m3
same,mass density,"298.15 K, x2 = 0.6",998.46 ± 0.71 kg/m3
same,mass density,"298.15 K, x2 = 0.7",1006.5 ± 0.74 kg/m3
same,mass density,"298.15 K, x2 = 0.8",1014.12 ± 0.79 kg/m3
same,mass density,"298.15 K, x2 = 0.9",1021.3 ± 0.84 kg/m3
same,speed of sound,"301.15 K, x2 = 0",1072.1 ± 1.6 m/s
same,speed of sound,"301.15 K, x2 = 0.1",1091.5 ± 1.6 m/s
same,speed of sound,"301.15 K, x2 = 0.2",1111.9 ± 1.6 m/s
same,speed of sound,"301.15 K, x2 = 0.3",1133.6 ± 1.6 m/s
same,speed of sound,"301.15 K, x2 = 0.4",1156.6 ± 1.6 m/s
same,speed of sound,"301.15 K, x2 = 0.5",1181.1 ± 1.7 m/s
same,speed of sound,"301.15 K, x2 = 0.6",1207.2 ± 1.7 m/s
same,speed of sound,"301.15 K, x2 = 0.7",1235 ± 1.7 m/s
same,speed of sound,"301.15 K, x2 = 0.8",1264.9 ± 1.7 m/s
same,speed of sound,"301.15 K, x2 = 0.9",1297.1 ± 1.8 m/s
same,mass density,"301.15 K, x2 = 0",939.16 ± 1.1 kg/m3
same,mass density,"301.15 K, x2 = 0.1",949.87 ± 0.99 kg/m3
same,mass density,"301.15 K, x2 = 0.2",959.66 ± 0.94 kg/m3
same,mass density,"301.15 K, x2 = 0.3",969.21 ± 0.88 kg/m3
same,mass density,"301.15 K, x2 = 0.4",978.18 ± 0.83 kg/m3
same,mass density,"301.15 K, x2 = 0.5",986.93 ± 0.78 kg/m3
same,mass density,"301.15 K, x2 = 0.6",995.31 ± 0.73 kg/m3
same,mass density,"301.15 K, x2 = 0.7",1003.43 ± 0.72 kg/m3
same,mass density,"301.15 K, x2 = 0.8",1011.08 ± 0.77 kg/m3
same,mass density,"301.15 K, x2 = 0.9",1018.24 ± 0.82 kg/m3
same,speed of sound,"304.15 K, x2 = 0",1058.2 ± 1.6 m/s
same,speed of sound,"304.15 K, x2 = 0.1",1077.6 ± 1.6 m/s
same,speed of sound,"304.15 K, x2 = 0.2",1098 ± 1.6 m/s
same,speed of sound,"304.15 K, x2 = 0.3",1119.7 ± 1.6 m/s
same,speed of sound,"304.15 K, x2 = 0.4",1142.8 ± 1.6 m/s
same,speed of sound,"304.15 K, x2 = 0.5",1167.3 ± 1.7 m/s
same,speed of sound,"304.15 K, x2 = 0.6",1193.4 ± 1.7 m/s
same,speed of sound,"304.15 K, x2 = 0.7",1221.5 ± 1.7 m/s
same,speed of sound,"304.15 K, x2 = 0.8",1251.5 ± 1.7 m/s
same,speed of sound,"304.15 K, x2 = 0.9",1283.9 ± 1.7 m/s
same,mass density,"304.15 K, x2 = 0",936.1 ± 1.1 kg/m3
same,mass density,"304.15 K, x2 = 0.1",946.87 ± 1 kg/m3
same,mass density,"304.15 K, x2 = 0.2",956.7 ± 0.95 kg/m3
same,mass density,"304.15 K, x2 = 0.3",966.21 ± 0.9 kg/m3
same,mass density,"304.15 K, x2 = 0.4",975.19 ± 0.84 kg/m3
same,mass density,"304.15 K, x2 = 0.5",983.97 ± 0.79 kg/m3
same,mass density,"304.15 K, x2 = 0.6",992.36 ± 0.74 kg/m3
same,mass density,"304.15 K, x2 = 0.7",1000.47 ± 0.7 kg/m3
same,mass density,"304.15 K, x2 = 0.8",1008.1 ± 0.75 kg/m3
same,mass density,"304.15 K, x2 = 0.9",1015.19 ± 0.8 kg/m3
same,speed of sound,"307.15 K, x2 = 0",1043.4 ± 1.6 m/s
same,speed of sound,"307.15 K, x2 = 0.1",1062.8 ± 1.6 m/s
same,speed of sound,"307.15 K, x2 = 0.2",1083.4 ± 1.6 m/s
same,speed of sound,"307.15 K, x2 = 0.3",1105.1 ± 1.6 m/s
same,speed of sound,"307.15 K, x2 = 0.4",1128.3 ± 1.6 m/s
same,speed of sound,"307.15 K, x2 = 0.5",1152.9 ± 1.6 m/s
same,speed of sound,"307.15 K, x2 = 0.6",1179.3 ± 1.7 m/s
same,speed of sound,"307.15 K, x2 = 0.7",1207.5 ± 1.7 m/s
same,speed of sound,"307.15 K, x2 = 0.8",1237.9 ± 1.7 m/s
same,speed of sound,"307.15 K, x2 = 0.9",1270.7 ± 1.7 m/s
same,mass density,"307.15 K, x2 = 0",933.04 ± 1.1 kg/m3
same,mass density,"307.15 K, x2 = 0.1",943.94 ± 1 kg/m3
same,mass density,"307.15 K, x2 = 0.2",953.7 ± 0.97 kg/m3
same,mass density,"307.15 K, x2 = 0.3",963.19 ± 0.91 kg/m3
same,mass density,"307.15 K, x2 = 0.4",972.14 ± 0.86 kg/m3
same,mass density,"307.15 K, x2 = 0.5",981.02 ± 0.81 kg/m3
same,mass density,"307.15 K, x2 = 0.6",989.41 ± 0.76 kg/m3
same,mass density,"307.15 K, x2 = 0.7",997.53 ± 0.71 kg/m3
same,mass density,"307.15 K, x2 = 0.8",1005.12 ± 0.73 kg/m3
same,mass density,"307.15 K, x2 = 0.9",1011.87 ± 0.78 kg/m3
same,speed of sound,"310.15 K, x2 = 0",1030.8 ± 1.6 m/s
same,speed of sound,"310.15 K, x2 = 0.1",1050.1 ± 1.6 m/s
same,speed of sound,"310.15 K, x2 = 0.2",1070.6 ± 1.6 m/s
same,speed of sound,"310.15 K, x2 = 0.3",1092.3 ± 1.6 m/s
same,speed of sound,"310.15 K, x2 = 0.4",1115.4 ± 1.6 m/s
same,speed of sound,"310.15 K, x2 = 0.5",1139.9 ± 1.6 m/s
same,speed of sound,"310.15 K, x2 = 0.6",1166.3 ± 1.7 m/s
same,speed of sound,"310.15 K, x2 = 0.7",1194.5 ± 1.7 m/s
same,speed of sound,"310.15 K, x2 = 0.8",1224.9 ± 1.7 m/s
same,speed of sound,"310.15 K, x2 = 0.9",1257.7 ± 1.7 m/s
same,mass density,"310.15 K, x2 = 0",929.98 ± 1.1 kg/m3
same,mass density,"310.15 K, x2 = 0.1",941.03 ± 1.1 kg/m3
same,mass density,"310.15 K, x2 = 0.2",950.89 ± 0.99 kg/m3
same,mass density,"310.15 K, x2 = 0.3",960.24 ± 0.93 kg/m3
same,mass density,"310.15 K, x2 = 0.4",969.24 ± 0.88 kg/m3
same,mass density,"310.15 K, x2 = 0.5",978.07 ± 0.83 kg/m3
same,mass density,"310.15 K, x2 = 0.6",986.45 ± 0.78 kg/m3
same,mass density,"310.15 K, x2 = 0.7",994.54 ± 0.73 kg/m3
same,mass density,"310.15 K, x2 = 0.8",1002.1 ± 0.71 kg/m3
same,mass density,"310.15 K, x2 = 0.9",1008.86 ± 0.76 kg/m3
same,speed of sound,"313.15 K, x2 = 0",1015.2 ± 1.6 m/s
same,speed of sound,"313.15 K, x2 = 0.1",1034.6 ± 1.6 m/s
same,speed of sound,"313.15 K, x2 = 0.2",1055.1 ± 1.6 m/s
same,speed of sound,"313.15 K, x2 = 0.3",1076.9 ± 1.6 m/s
same,speed of sound,"313.15 K, x2 = 0.4",1100.2 ± 1.6 m/s
same,speed of sound,"313.15 K, x2 = 0.5",1125 ± 1.6 m/s
same,speed of sound,"313.15 K, x2 = 0.6",1151.6 ± 1.6 m/s
same,speed of sound,"313.15 K, x2 = 0.7",1180.1 ± 1.7 m/s
same,speed of sound,"313.15 K, x2 = 0.8",1210.9 ± 1.7 m/s
same,speed of sound,"313.15 K, x2 = 0.9",1244.2 ± 1.7 m/s
same,mass density,"313.15 K, x2 = 0",926.92 ± 1.1 kg/m3
same,mass density,"313.15 K, x2 = 0.1",938.11 ± 1.1 kg/m3
same,mass density,"313.15 K, x2 = 0.2",947.93 ± 1 kg/m3
same,mass density,"313.15 K, x2 = 0.3",957.22 ± 0.95 kg/m3
same,mass density,"313.15 K, x2 = 0.4",966.21 ± 0.9 kg/m3
same,mass density,"313.15 K, x2 = 0.5",975.03 ± 0.84 kg/m3
same,mass density,"313.15 K, x2 = 0.6",983.45 ± 0.8 kg/m3
same,mass density,"313.15 K, x2 = 0.7",991.62 ± 0.75 kg/m3
same,mass density,"313.15 K, x2 = 0.8",999.14 ± 0.7 kg/m3
same,mass density,"313.15 K, x2 = 0.9",1005.92 ± 0.74 kg/m3
